Residues, ends and D or L forms follow the SMILES beside them.
Species: Rattus norvegicus
Assay: Agonist activity relative to angiotensin II in uterine contraction was estimated in rat using rat oxytocic assay

| Structure (SMILES) | Relative activity [%] |
| --- | --- |
| CC(C)[C@H](NC(=O)[C@H](CCCN=C(N)N)NC(=O)[C@@H](N)CC(=O)O)C(=O)N[C@@H](Cc1ccc(O)cc1)C(=O)N[C@H](C(=O)N[C@@H](Cc1c[nH]cn1)C(=O)N1CCC[C@H]1C(=O)N[C@@H](Cc1ccccc1)C(=O)O)C(C(F)(F)F)C(F)(F)F (HELM PEPTIDE1{D.R.V.Y.[O=C([C@@H](N[*:1])C(C(F)(F)F)C(F)(F)F)[*:2]].H.P.F}$$$$V2.0) | 133 |
| CC(C)[C@H](NC(=O)[C@H](CCCN=C(N)N)NC(=O)[C@@H](N)CC(=O)O)C(=O)N[C@@H](Cc1ccc(O)cc1)C(=O)N[C@@H](C(=O)N[C@@H](Cc1c[nH]cn1)C(=O)N1CCC[C@H]1C(=O)N[C@@H](Cc1ccccc1)C(=O)O)C(C(F)(F)F)C(F)(F)F (HELM PEPTIDE1{D.R.V.Y.[O=C([C@H](N[*:1])C(C(F)(F)F)C(F)(F)F)[*:2]].H.P.F}$$$$V2.0) | <1 |

Reference: ChEMBL document CHEMBL1121692, “Synthesis of fluorine-containing peptides. Analogues of angiotensin II containing hexafluorovaline” (J Med Chem, 1981)
